Measurements reported in patent publication US8846914B2, “Compositions to effect neuronal growth” (Neuralstem, Inc., priority 2003, dated 2014).
Like-named read-outs stand apart in the source and are kept apart here.

Experiments:
[1] = test system: human hippocampal stem cells differentiated for 3-4 weeks; assay: Neuroprotection against staurosporine-induced neurodegeneration; assay type: cell-based; conditions: 125 nM staurosporine, twenty-four hour, 10 μM agent; for inhibition at 10 µM: Homo sapiens, 24 h
Procedure: FIG. 7A is a bar graph illustrating an example of a neuroprotection profile of the compounds against staurosporine-induced human hippocampal neurodegeneration as indicated by loss of neurons after twenty-four hour treatment with staurosporine by counting the remaining number of neurons, an increase in […], and an increase in intracellular levels of activated caspase-3/-7 detected by immunostaining. Addition of 125 nM staurosporine solution to human hippocampal stem cells differentiated for 3-4 weeks causes neuronal injury and death. Effect of the […] treatment to inhibit the staurosporine-induced neuronal loss and injury are shown. Each bar represents n=6 wells of the mean+/−the SEM from a single experiment.
Effect of the compound treatment to inhibit the staurosporine-induced neuronal loss and injury are shown. Each bar represents n=6 wells of the mean+/−the SEM from a single experiment.
Agents that promote proliferation and neurogenesis are further evaluated for their ability to inhibit neurodegeneration and apoptosis of the human hippocampal multipotent stem cell-derived neurons. Neurodegeneration may be induced in culture using any number of inducers as known by those skilled in the art. Examples of neurodegenerative inducers include: staurosporine, hypoxia reperfusion, free radicals, glutamate agonists, activated monocyte supernatant, beta amyloid peptides and corticosteroids to name a few. Some of the neurogenic agents inhibit loss of neurons, inhibit caspase activation, inhibit nuclear fragmentation or condensation, inhibit lactate dehydrogenase activity among other effects on neurodegeneration. Using staurosporine as an example, 125 nM of a staurosporine solution is added along with 10 μM of one of the listed neurogenic agents to human hippocampal stem cells differentiated for 3-4 weeks.
A number of neurogenic agents inhibit neuronal loss, caspase-3 activity and/or nuclear fragmentation compared to staurosporine vehicle control. These NSI small molecule agents are all effective at in vitro neurogenesis as determined by methods described. More particularly, human hippocampal stem cells differentiated for a period of 3-4 weeks are treated with an agent for 8-24 hrs in a neuronal maintenance media prior to treatment with an apoptotic or neurodegenerative insults such as staurosporin, TNFα and LPS-stimulated monocyte supernatant and the like. Following the treatment period, media is removed from the treated cells and the cells are fixed and stained. Staining may include Hoechst stain, MAP-2ab (AP-20) antibody staining, active caspase-3 antibody or other measures of neurodegeneration and apoptosis. Instrumentation such as a Molecular Devices fluorescent plate reader or a […] Array Scan II instrument and the like may be used to measure the degeneration and apoptosis.
FIGS. 7A, 7B and 7C illustrate an example of a neuroprotection profile of tested compounds against staurosporine-induced human hippocampal neurodegeneration measured by the remaining number of neurons, an increase in nuclear fragmentation, and an increase in intracellular levels of activated caspase-3/-7 detected by immunostaining, respectively. Human hippocampal stem cells that have been differentiated for 3-4 weeks undergo a twenty-four hour treatment with 125 nM staurosporine solution to cause neuronal injury and death. The effect of the compound treatment to inhibit the staurosporine-induced neuronal loss and injury is shown in each of FIGS. 7A, 7B and 7C. Each bar represents n=6 wells of the mean+/−the SEM from a single experiment.

hippocampal stem cells = assay: Differentiation into mature neurons (BrdU+/MAP-2ab+), three-week treatment; assay type: cell-based, human; conditions: three weeks of continuous treatment; two-day BrdU pulse; FIG. 12
Procedure: FIG. 12 is a bar graph illustrating an example of differentiation into mature neurons as a percentage of control in response to a three-week treatment with the test compounds. Mitotic cells were labeled with BrdU. BrdU-positive cells were double-stained with the marker of mature neurons, anti-MAP-2 antibody. Total BrdU-immunostained cells and BrdU+/MAP-2ab+ co-stained cells indicating neurons were counted.
In FIG. 12 the exact number of dividing cells and neurons are determined to confirm that the increase in neurons is due to proliferation followed by differentiation. In FIG. 12, hippocampal stem cells are plated in a 96-well plate. The cells are then treated with one of the agents listed along with a two-day pulse of bromodeoxyuridine which is taken up into dividing cells thereby labeling mitotic cells with BrdU. After three weeks of continuous treatment with the listed agents, the cells are fixed and stained for BrdU immunoreactivity. BrdU-positive cells are double-stained with the marker of mature neurons, anti-MAP-2 to identify cells that have differentiated into mature neurons. The BrdU+/MAP-2ab+ co-stained cells which have differentiated into mature neurons are distinguished from control BrdU-immunostained cells which are proliferating stem cells.

[2] = test system: caspase-3 activation induced by beta amyloid peptide 25-35; assay: Apoptosis induced by beta amyloid peptide 25-35 (caspase-3); assay type: cell-based, human; conditions: FIG. 8
Excerpt: FIG. 8 is a bar graph illustrating an example of a neuroprotection profile of the compounds against apoptosis, also known as programmed cell death, induced by beta amyloid peptide 25-35 as a model of Alzheimer's disease. Caspase-3 activation plays a central role in apoptosis and is an indicator of the occurrence of apoptosis if detected. […] Bars represent mean±SD from five wells.
Another assay used to determine the ability of a compound to provide neuroprotection is an apoptosis assay. Apoptosis is measured using the activity of an early matter of the programmed cell death pathway, caspase-3. Following 24 hours or 48 hours of apoptotic-induction in the presence and absence of compound treatment, the media is removed from the wells, and 50 μl cell lysis buffer is added to each well, 50 μl of 2× reaction buffer containing 10 mM DTT is then added to the lysate in each well. The contents of two wells are combined (for example: rows A/H, B/G, C/F, D/E), and 5 μl of substrate is added per well as recommended in the protocol for a caspase-3 fluorometric assay kit (Biovision) known in the art. The plate is incubated at 37° C. for 60 minutes. The contents of each well are then transferred to a fresh plate, and the fluorescence is determined with an […] using a fluorescent plate reader such as the Molecular Devices Gemini Fluorescent Plate Reader. Caspase-3 activity is expressed as μM of cleaved substrate per hour. Substrate concentration in μM is run for each plate to determine activity values for each treatment condition.
FIG. 8 is a bar graph illustrating an example of a neuroprotection profile of the compounds against apoptosis induced by beta amyloid peptide 25-35, part of a larger peptide found in plaques in Alzheimer's brains, as a model of Alzheimer's disease. Caspase-3 activation plays a central role in apoptosis and is an indicator of the occurrence of apoptosis if detected. […] Bars represent mean±SD from five wells.

[3] = read-out: Stauro % Inhib Nuclear Frag
[4] = read-out: Stauro % Inhib Caspase-3

SMILES	Stauro % Inhib Neuron Number [1]	Proliferation and differentiation into mature neurons (BrdU+/MAP-2ab+ cells) (hippocampal stem cells)	inhibition at 10 µM [1, 3] [%]	further results
CCCCNc1c(C2CCN(C(=O)CN(CC(C)C)S(C)(=O)=O)CC2)nc2cnccn12 [NSI-106]	16 ± 19%			
CS(=O)(=O)N1CCCCC1C(=O)NCc1ccc(Nc2c(C3CC3)nc3ccccn23)cc1 (centres unmarked) [NSI-127]		induce proliferation and then differentiation into neurons		
COc1ccc(CCNc2ncc(C(N)=O)c(NC3CC3)n2)cc1OC [NSI-130]			56 ± 17	Inhibition of apoptosis induced by beta amyloid peptide 25-35 [2]: inhibit apoptosis
CCCNc1ncc(C(N)=O)c(NC2CCCC2)n1 [NSI-137]			87 ± 41	
O=C(NC1CCN(Cc2ccccc2)CC1)c1cccnc1N1CCNCC1 [NSI-143]			123 ± 77	
NC(=O)c1cnc(NCc2ccc(Cl)cc2)nc1NCC1CCCCC1 [NSI-144]		induce proliferation and then differentiation into neurons		Inhibition of apoptosis induced by beta amyloid peptide 25-35 [2]: inhibit apoptosis
CCCCNc1c(C2CCN(C(=O)c3ccc(C#N)cc3)CC2)nc2ccccn12 [NSI-149]	47 ± 15%			
NC(=O)C1CCCN1C(=O)c1cccnc1NCC1CCCCC1 (centres unmarked) [NSI-158]	22 ± 18%			inhibition at 10 µM [1, 4]: 48 ± 14%
O=C(NCc1nc2ccccn2c1NCC1CCCO1)Oc1ccccc1 (centres unmarked) [NSI-182]			85 ± 45	inhibition at 10 µM [1, 4]: 108 ± 21%; Inhibition of apoptosis induced by beta amyloid peptide 25-35 [2]: inhibit apoptosis
O=C(COc1ccccc1)NCc1nc2ccccn2c1NCC1CCCO1 (centres unmarked) [NSI-183]		induce proliferation and then differentiation into neurons		
CS(=O)(=O)N(CC(=O)NCc1nc2ccccn2c1NCc1ccccc1)c1ccccc1 [NSI-185]				Stauro % Inhib Nuclear Frag [1]: N/N
CC(C)CCNc1ncccc1C(=O)N1CCN(Cc2ccccc2)CC1 [NSI-189]	N/N			
CCN(CCNC(=O)c1cccnc1NCCC(C)C)Cc1cccnc1 [NSI-190]	32 ± 1%	induce proliferation and then differentiation into neurons	42 ± 30	
